Test results taken from paper PMC11456426, “Study of transport, tissue distribution, depletion, and hepatotoxicity of Cyadox, a quinoxaline-1,4-dioxide derivative” (Frontiers in Pharmacology, 2024).
Like-named read-outs stand apart in the source and are kept apart here.

Key:
[1] = biological target: T1, bovine serum albumin (BSA) (Bos taurus, UniProt P02769); assay: Circular dichroism spectra of the BSA-CYA system; format: binding; settings: 1.0 × 10^−6 M BSA with 1.0 × 10^−6 M CYA, pH 7.4, 312 K
Protocol: For CD studies, the final concentration of BSA and CYA was 1.0 × 10^−6 M. The CD spectra were recorded at 312 K with a Jasco-810 spectropolarimeter (Jasco, Japan) using a 0.1 cm quartz cuvette. Three scans were accumulated at a scan speed of 200 nm min^−1, with data being collected every 0.2 nm from 200 nm to 260 nm at 312 K.

[2] = biological target: T1, bovine serum albumin (BSA); assay: Fluorescence quenching of BSA by CYA (Stern-Volmer and binding constants); settings: for Kd: read-out: KA (binding constant) (converted)
Protocol: The concentration of CYA was varied at 0, 0.33, 0.66, 1.0, 1.33, 1.66, and 2.0 × 10^−6 M.
Steady-state fluorescence spectra were performed on a FP-6500 spectrofluorimeter (Jasco, Japan) equipped with a thermostatic bath and 1.0 cm quartz cell. Fluorescence emission spectra were recorded at 300, 305, and 310 K in the range of 295 nm–500 nm. The excitation and emission slits with a band pass of 5 nm were used for all the measurements.
Synchronous fluorescence spectra were performed when the D-values between the excitation and emission wavelengths were set at 15 and 60 nm. Fluorescence excitation spectra were recorded at 302, 307, and 312 K in the range of 200–400 nm.
The Stern–Volmer equation below was used to analyze the fluorescence quenching data and confirm the quenching mechanism ([Zhou et al., 2022]): F0/F=1+KSVQ=1+kqτ0Q , where F 0 and F are the fluorescence intensities before and after the addition of the quencher CYA, K sv is the Stern–Volmer quenching constant, k q is the bimolecular quenching constant, τ 0 is the lifetime of the fluorophore in the absence of the quencher (10^−8 s), and [Q] is the concentration of the quencher. The Stern–Volmer quenching constant K sv is inversely correlated with temperature, and the k q values are much greater than the maximum scattering collisional quenching constant (2.0 × 10^10 M^−1S^−1).
For static quenching, the equilibrium between the free and bound molecules is given by the following equation: logF0−F/F=logKA+nlogQ , where K A is the binding constant, and n is the number of binding sites. […] Moreover, the values of n were approximately equal to 1, which indicated the presence of one binding site in the BSA–CYA system.

[3] = test system: liver; assay: Hepatotoxicity by liver transcriptomics; format: in vivo, KM mice; settings: mice, CYA 1,000 mg/kg bw, 7 days
Protocol: For the hepatotoxicity study, a group of four mice (2 male and 2 female, KM) were administered CYA at a dose of 1,000 mg/kg bw. Another group of four mice received saline as a control. After 7 days, the mice were anaesthetised, sacrificed and their livers collected. A total of eight samples from 2 groups of the obtained livers were sent to Majorbio Technology Co., Ltd. (Shanghai, China) for testing, divided into the blank group (control; A1, A2, A3, A4) and the drug group administered CYA (drug; B1, B2, B3, B4), with 4 samples in each group. Sequencing was performed using the Meiji Medical Reference Transcriptome Sequencing Platform to complete the transcriptome analysis of eight samples. The raw reads were deposited into the NCBI Sequence Read Archive (SRA) database (BioProject: Number: PRJNA1082257).
Differently expressed genes are genes with significant differences obtained by computing the expression of all genes between different groups after transcriptome sequencing. On the Meggie Bio platform, differential gene analysis was carried out between groups by quantifying the expression results to obtain the genes that were differentially expressed between the two groups, and the differential analysis software was: DESeq2, the screening threshold was: |log2FC| ≥0 and padjust< 0.05, and the specific results are shown in Figure 5B below.

[4] = test system: testis; design: method as in Ihsan et al., 2011; settings: ref Ihsan et al., 2011, cited from earlier work

T1 sequence (P02769 25-607): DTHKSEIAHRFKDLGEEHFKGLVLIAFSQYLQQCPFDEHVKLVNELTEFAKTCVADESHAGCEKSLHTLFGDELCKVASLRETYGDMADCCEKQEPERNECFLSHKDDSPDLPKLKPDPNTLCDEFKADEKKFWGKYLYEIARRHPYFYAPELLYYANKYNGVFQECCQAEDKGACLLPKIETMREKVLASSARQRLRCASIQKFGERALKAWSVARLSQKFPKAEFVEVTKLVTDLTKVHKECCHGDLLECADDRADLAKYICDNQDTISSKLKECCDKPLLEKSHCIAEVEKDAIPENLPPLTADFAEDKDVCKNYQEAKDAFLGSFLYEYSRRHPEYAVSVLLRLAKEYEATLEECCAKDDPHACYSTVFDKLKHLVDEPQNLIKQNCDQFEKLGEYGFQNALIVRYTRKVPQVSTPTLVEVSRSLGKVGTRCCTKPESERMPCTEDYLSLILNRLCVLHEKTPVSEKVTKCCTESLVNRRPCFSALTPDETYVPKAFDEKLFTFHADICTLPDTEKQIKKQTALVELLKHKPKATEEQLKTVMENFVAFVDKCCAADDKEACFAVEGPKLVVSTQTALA

N#CCC(=O)NN=Cc1c[n+]([O-])c2ccccc2[n+]1[O-] [CYA, (2-formylquinoxaline)-N1,N4-dioxide cyanoacetylhydrazone]
BSA secondary structure, turns ([1]; BSA alone 19%): 26%
BSA secondary structure, α-helix ([1]; BSA alone 20%): 21%
BSA secondary structure, unordered ([1]; BSA alone 26%): 25%
BSA secondary structure, β-strand ([1]; BSA alone 35%): 28%
Ksv (Stern-Volmer quenching constant) ([2]; T 302 K, pH 7.4): 86500 M⁻¹
kq (bimolecular quenching constant) ([2]; T 302 K, pH 7.4): 8.65 × 10^12 M^−1S^−1
n (number of binding sites) ([2]; T 302 K, pH 7.4): 1.139
Kd ([2]; T 302 K, pH 7.4): 5.71 µM
Ksv (Stern-Volmer quenching constant) ([2]; T 307 K, pH 7.4): 40700 M⁻¹
kq (bimolecular quenching constant) ([2]; T 307 K, pH 7.4): 4.07 × 10^12 M^−1S^−1
n (number of binding sites) ([2]; T 307 K, pH 7.4): 0.915
Kd ([2]; T 307 K, pH 7.4): 103 µM
Ksv (Stern-Volmer quenching constant) ([2]; T 312 K, pH 7.4): 33600 M⁻¹
kq (bimolecular quenching constant) ([2]; T 312 K, pH 7.4): 3.36 × 10^12 M^−1S^−1
n (number of binding sites) ([2]; T 312 K, pH 7.4): 0.931
Kd ([2]; T 312 K, pH 7.4): 178 µM
n (number of binding sites) ([2]; all temperatures): ~1
cell-process differential genes associated with apoptosis [3]: none
direction of change of lipid metabolism / steroid biosynthesis related genes [3]: predominantly downregulated
expression of StAR, P450scc, and 17β-HSD (liver transcriptomic data) [3]: no significant decrease
genes expressed uniquely after administration of the drug [3]: 249
genes of lipid metabolism-related pathways with significant changes [3]: 25
hepatotoxicity (transcriptomic assessment) [3]: low hepatotoxicity
significantly different genes associated with cell processes [3]: 23
genes significantly downregulated in liver, drug group vs blank group ([3]; DESeq2, padjust< 0.05): 176

CC(=O)c1c(C)[n+]([O-])c2ccccc2[n+]1[O-] [MEQ, Mequindox]
mRNA expression levels of AR and 3β-HSD ([4]; 110 mg/kg vs control group): significantly increased
mRNA expression levels of StAR, P450scc, and 17β-HSD in the testis ([4]; 275 mg/kg vs control group): significantly reduced
